Experimental data reported in patent US6693116B2, “Adenosine receptor ligands” (Hoffmann-La Roche Inc., priority 2001, dated 2004).

Each molecule was assayed against T1, human adenosine A2A receptor (Homo sapiens, UniProt P29274) (assay: [3H]-SCH-58261 binding assay, human adenosine A2A receptor). Conditions: membranes of CHO cells recombinantly expressing the human A2A receptor, Ki from IC50 by Cheng-Prussoff equation, read-out: HA2A KI.
T1 construct: expressed in transfected cells; host or cells: CHO cells, Semliki Forest virus expression system; membrane preparation
Method: Human Adenosine A2A Receptor
The human adenosine A2A receptor was recombinantly expressed in Chinese hamster ovary (CHO) cells using the semliki forest virus expression system. Cells were harvested, washed twice by centrifugation, homogenized and again washed by centrifugation. The final washed membrane pellet was suspended in a Tris (50 mM) buffer containing 120 mM NaCl, 5 mM KCl, 2 mM CaCl2 and 10 mM MgCl2 (pH 7.4) (buffer A). The [^3H]-SCH-58261 (Dionisotti et al., 1997, Br. J. Pharmacol. 121, 353) binding assay was carried out in 96-well plates in the presence of 2.5 μg of membrane protein, 0.5 mg of Ysi-poly-l-lysine SPA beads and 0.1 U adenosine deaminase in a final volume of 200 μl of buffer A. Non-specific binding was defined using xanthine amine congener (XAC; 2 μM). Compounds were tested at 10 concentrations from 10 μM to 0.3 nM. All assays were conducted in duplicate and repeated at least twice. Assay plates were incubated for 1 hour at room temperature before centrifugation and then bound ligand was determined using a Packard Topcount scintillation counter. IC50 values were calculated using a non-linear curve fitting program and Ki values calculated using the Cheng-Prussoff equation.
In accordance with the invention, the compounds of formula I have a high affinity toward the A2A receptor. The table below (after Example 10) describes specific values of prepared compounds.

T1 sequence (P29274 whole entry): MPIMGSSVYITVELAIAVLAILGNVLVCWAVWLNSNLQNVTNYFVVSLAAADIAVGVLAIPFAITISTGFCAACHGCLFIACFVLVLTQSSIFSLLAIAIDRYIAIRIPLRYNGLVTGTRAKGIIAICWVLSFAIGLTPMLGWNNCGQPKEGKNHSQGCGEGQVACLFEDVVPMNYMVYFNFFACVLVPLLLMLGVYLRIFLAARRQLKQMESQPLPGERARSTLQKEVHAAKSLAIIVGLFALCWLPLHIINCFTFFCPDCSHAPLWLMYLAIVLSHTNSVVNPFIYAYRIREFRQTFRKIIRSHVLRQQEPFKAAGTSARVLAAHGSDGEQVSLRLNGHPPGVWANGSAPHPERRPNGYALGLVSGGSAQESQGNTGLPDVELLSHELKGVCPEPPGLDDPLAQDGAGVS

**Q.** COc1ccc(-c2ccccc2)c2nc(NC(=O)c3cccc(C)c3)nn12 [Example 17, N-(5-Methoxy-8-phenyl-[1,2,4]triazolo[1,5-a]pyridin-2-yl)-3-methyl-benzamide] was tested. Which Ki did it give?
**A.** Its Ki is 984 nM.

**Q.** For COc1ccc(Br)c(C(=O)Nc2nc3c(-c4cccc(F)c4)ccc(OC)n3n2)c1 [Example 14, 2-Bromo-N-[8-(3-fluoro-phenyl)-5-methoxy-[1,2,4]triazolo[1,5-a]pyridin-2-yl]-5-methoxy-benzamide], which Ki is on record?
**A.** Its Ki is 908 nM.

**Q.** For COc1cccc(-c2ccc(OC)n3nc(NC(=O)c4ccc(F)cc4)nc23)c1 [Example 19, 4-Fluoro-N-[5-methoxy-8-(3-methoxy-phenyl)-[1,2,4]triazolo[1,5-a]pyridin-2-yl]-benzamide], which Ki is on record?
**A.** Its Ki is 748 nM.

**Q.** With COc1ccc(-c2ccc(F)cc2)c2nc(NC(=O)c3ccc(F)cc3)nn12 [Example 18, 4-Fluoro-N-[8-(4-fluoro-phenyl)-5-methoxy-[1,2,4]triazolo[1,5-a]pyridin-2-yl]-benzamide] as the molecule, how does the Ki read?
**A.** Its Ki is 664 nM.

**Q.** For COc1ccc(-c2ccc(F)cc2)c2nc(NC(=O)c3ccc(Br)cc3)nn12 [Example 12, 4-Bromo-N-[8-(4-fluoro-phenyl)-5-methoxy-[1,2,4]triazolo[1,5-a]pyridin-2-yl]-benzamide], which Ki is on record?
**A.** The Ki was 776 nM.

**Q.** With COc1ccc(-c2cccc(F)c2)c2nc(NC(=O)c3ccc(Br)o3)nn12 [Example 15, 5-Bromo-furan-2-carboxylic acid [8-(3-fluoro-phenyl)-5-methoxy-[1,2,4]triazolo[1,5-a]pyridin-2-yl]-amide] as the molecule, how does the Ki read?
**A.** Its Ki is 572 nM.

**Q.** Which Ki does the source give for COc1cccc(-c2ccc(OC)n3nc(NC(=O)c4ccc(Br)o4)nc23)c1 [Example 16, 5-Bromo-furan-2-carboxylic acid [5-methoxy-8-(3-methoxy-phenyl)-[1,2,4]triazolo[1,5-a]pyridin-2-yl]-amide] here?
**A.** The Ki was 560 nM.

**Q.** How did the Ki turn out when COc1cccc(-c2ccc(OC)n3nc(NC(=O)c4ccc(Br)cc4)nc23)c1 [Example 13, 4-Bromo-N-[5-methoxy-8-(3-methoxy-phenyl)-[1,2,4]triazolo[1,5-a]pyridin-2-yl]-benzamide] was run?
**A.** Its Ki is 480 nM.

**Q.** For COc1cccc(-c2ccc(OC)n3nc(NC(=O)c4cccs4)nc23)c1 [Example 21, Thiophene-2-carboxylic acid[5-methoxy-8-(3-methoxy-phenyl)-[1,2,4]thiazolo[1,5-a]pyridin-2-yl]-amide], which Ki is on record?
**A.** Its Ki is 516 nM.

**Q.** COc1ccc(-c2ccc(F)cc2)c2nc(NC(=O)c3ccccc3F)nn12 [Example 20, 2-Fluoro-N-[8-(4-fluoro-phenyl)-5-methoxy-[1,2,4]triazolo[1,5-a]pyridin-2-yl]-benzamide] was tested. Which Ki did it give?
**A.** The Ki was 784 nM.

**Q.** How did the Ki turn out when COc1ccc(-c2ccccc2)c2nc(NC(=O)c3ccc(C(F)(F)F)cc3)nn12 [Example 11, N-(5-Methoxy-8-phenyl-[1,2,4]triazolo[1,5-a]pyridin-2-yl)-4-trifluoromethyl-benzamide] was run?
**A.** The Ki was 884 nM.
